# Results taken from US11628153B2, “Agent for preventing or amelioriting nocturia” (Kao Corporation, priority 2018, dated 2023).
# Tested on: Spontaneously Hypertensive Rats (SHRs)
# Assay: Urination behavior recording in metabolic cages after 8 weeks of oral intake of rosmarinic acid-containing feed (urinary frequency, urine volume)
# Format: in vivo, rat
# Conditions: for Mean urinary frequency of rats during rest period / Mean urine volume of rats during rest period / Mean urinary frequency of rats during activity period / Mean urine volume of rats during activity period: 0.5 mass % rosmarinic acid feed, 8 weeks, mean ± standard error, n=12; for Significant difference in mean urinary frequency, treatment vs control group / Significant difference in mean urine volume, treatment vs control group: Student-t test
# From the text: For the test, Spontaneously Hypertensive Rats (SHRs, see American Journal of Physiology, 1998, vol. 275, p. R1279-1286 and Neurourology and Urodynamics, 2005, vol. 24, p. 295-300) (42-week-old, female, obtained from Japan SLC) were used. SHRs in the treatment group (n=12) ingested, for 8 weeks, a rosmarinic acid-containing feed (composition: 0.5 mass % rosmarinic acid (obtained from Carbosynth, Inc.), 66 mass % starch, 20 mass % casein, 5 mass % corn oil, 4 mass % cellulose, 3.5 mass % mineral, and 1 mass % vitamin). SHRs in the control group (n=12) ingested, for 8 weeks, a rosmarinic acid-free feed (composition: 66.5 mass % starch, 20 mass % casein, 5 mass % corn oil, 4 mass % cellulose, 3.5 mass % mineral, and 1 mass % vitamin). Then, their urination behavior was recorded in metabolic cages. Note that, before the recording in the metabolic cages, 4-day adaptation period was provided, and they were reared individually. The urination behavior recording (measurement of the urinary frequency and the urine volume) was carried out under conditions with free access to feed and water and under conditions with a 12/12-h light/dark cycle. The urine volume was weighed with an electronic balance while the urine was collected every urination. Note that a past report (see Neurourology and Urodynamics, 2017, vol. 36, p. 1034-1038) was consulted; the start time of a light period corresponding to a rest period of each rat was set to ZT0; the light period was divided into two periods of ZT0-6 and ZT6-12; and the urinary frequency during each period was defined as an indicator for nocturia. In addition, a dark period corresponding to an activity period was divided into two periods of ZT12-18 and ZT18-24; and the urinary frequency during each period was defined as an indicator for daytime frequent urination. […] The results were means±standard errors. To compare the inter-group means, Student-t test was used.
compound,measurement,setting,value
O=C(/C=C/c1ccc(O)c(O)c1)O[C@H](Cc1ccc(O)c(O)c1)C(=O)O [rosmarinic acid],Mean urinary frequency of rats during rest period,ZT0-6 (rest period),2.5 ± 0.2 times/6 h
same,Mean urine volume of rats during rest period,ZT0-6 (rest period),1.7 ± 0.1 mL/6 h
same,"Significant difference in mean urinary frequency, treatment vs control group",ZT0-6 (rest period),N.S.
same,"Significant difference in mean urine volume, treatment vs control group",ZT0-6 (rest period),N.S.
same,Mean urinary frequency of rats during rest period,ZT6-12 (rest period),2.4 ± 0.2 times/6 h
same,Mean urine volume of rats during rest period,ZT6-12 (rest period),1.1 ± 0.1 mL/6 h
same,"Significant difference in mean urine volume, treatment vs control group",ZT6-12 (rest period),N.S.
same,Mean urinary frequency of rats during activity period,ZT12-18 (activity period),6.7 ± 1.1 times/6 h
same,Mean urine volume of rats during activity period,ZT12-18 (activity period),2.4 ± 0.4 mL/6 h
same,"Significant difference in mean urinary frequency, treatment vs control group",ZT12-18 (activity period),N.S.
same,"Significant difference in mean urine volume, treatment vs control group",ZT12-18 (activity period),N.S.
same,Mean urinary frequency of rats during activity period,ZT18-24 (activity period),6.0 ± 0.7 times/6 h
same,Mean urine volume of rats during activity period,ZT18-24 (activity period),2.4 ± 0.2 mL/6 h
same,"Significant difference in mean urinary frequency, treatment vs control group",ZT18-24 (activity period),N.S.
same,"Significant difference in mean urine volume, treatment vs control group",ZT18-24 (activity period),N.S.
same,"Significant difference in the mean urine volume during each time zone, treatment vs control group",all time zones (ZT0-24),undetected
